Measurements: publication PMC7154662, “Structural Insight into IAPP‐Derived Amyloid Inhibitors and Their Mechanism of Action” (Angewandte Chemie (International Ed. in English), 2020)
“Also recorded” adds a separate entry of the source. One block for each molecule: values may come before it.

Legend:
[1] = test system: Aβ; conditions: cited from earlier work
Text: (§1) Single‐site binding events are the classical paradigm for a drug–enzyme complex. Because of the low affinity and the lack of deep binding pockets, this class of inhibitors is not very effective for amyloids (Figure 7, top). Nevertheless, it has been shown that multi‐ligand interactions of tramisprosate with monomeric Aβ42 can prevent amyloid oligo ...

[2] = test system: Aβ42; conditions: multi-ligand interactions with monomeric Aβ42; cited from earlier work
Text: as §1

[3] = Morphology by TEM, DIC and fluorescence microscopy; format: physicochemical; conditions: DIC experiments; 10 mM sodium phosphate buffer, pH 7.4 (1% v/v HFIP)
Procedure: Figure 1 R3‐GI self‐assembly. […] On the right, the binding curve is shown. The estimated app. […] Data are means (±SEM) from three binding curves. […] Scale bar: 10 μm.
(§2) Peptide synthesis and sample preparation for NMR
(§3) The other peptide samples were
(§4) Sample preparation for DLS, TEM and DIC
(§5) (containing 1% v/v HFIP) without filtration. The Fluor-647-Aβ40 was ordered from AnaSpec, […]
(§6) for 20 min before capturing images. […]
(§7) microscope, as described elsewhere. An oil immersion objective (Apo-TIRF 100x Oil/NA 1.49, Nikon) was used for all measurements.
(§8) Picoquant) was used for excitation. Fluorescence emission was detected using an avalanche […]
(§9) measurements were carried out at 22 °C.
(§10) (measured before the back aperture of the objective). […]
(§11) temperature within 2-5 min following solution preparation. The determined app. Kd is means (±SD) from three binding curves.
Cross-linking studies were performed as previously described. […]
(§12) Effects of peptides on amyloidogenesis of Aβ40 were determined using a previously established ThT binding assay as described. […] ThT binding was determined immediately by measuring fluorescence emission at 486 nm following excitation at 450 nm using a 2030 Multilabel Reader VictorX3 (PerkinElmer Life Sciences). […]
(§13) PA 19440, USA; Formvar/Carbon 300 mesh copper coated). Samples were measured immediately employing an EM 10 CR (Zeiss, Germany). […]

[4] = test system: Aβ40/42; conditions: ref 1b; cited from earlier work
Text: The design of the ISMs was based on the finding that amyloids are generally composed of a β‐sheet‐turn‐β‐sheet structural motif and that IAPP uses the same two binding regions for both its amyloid self‐ and its cross‐amyloid hetero‐assem ... || Our studies focused on the two ISMs R3‐GI and K3‐L3‐K3‐GI for the following reasons (Figure 1 A and Table S1 in the Supporting Information): 1) R3‐GI was used in solution‐state NMR studies as the intrinsically low solubility of all ISMs with hydrophobic linkers makes them unsuitable for solution‐state NMR spectroscopy. […] Multivalent interactions between an inhibitor molecule and an amyloid fibril have been exploited by Wall and co‐workers,27 who designed an α‐helical peptide with a lysine basic side chain to interact with negatively charged residues exposed on the surface of amyloid structures. These inhibitors are used as imaging reagents and stabilize a fibrillar fold. In contrast, ISMs prevent amyloid form ...

[5] = test system: Aβ40; experiment: Solubility of 15N-labeled Aβ40 in presence of ISM (NMR titration); format: binding; conditions: for Aβ40 signal at tenfold excess of ISM, in words: molar ratio Aβ/ISM 1:10; for Effect on Aβ40 solubility upon titration, in words: titration with / incubation of monomeric Aβ40
Procedure: (§14) Figure 5 ISM–substrate interactions. A) ^15N‐filtered 1D‐^1H spectra of a 20 μM sample of ^15N‐labeled Aβ40 in the absence (black) and presence of the ISM inhibitor K3‐L3‐K3‐GI (top), and the non‐inhibitor G3‐GI (bottom). […] At this molar excess, the intensities of Aβ40 are reduced only to ca. 28 % when G3‐GI is titrated to Aβ40. […] At a molar ratio of 1:10 for Aβ/inhibitor, the spectrum is dominated by the resonances of the inhibitor. […] B) 2D ^1H‐^15N HSQCs of Aβ40 incubated with K3‐L3‐K3‐GI (red) at a molar ratio of 1:1. The Aβ40 reference spectrum is represented in black. […] C) Comparison of the DIC and fluorescence microscopy images of R3‐GI/Aβ40, K3‐L3‐K3‐GI/Aβ40, and G3‐GI/Aβ40. […] Scale: 10 μm.

[6] = test system: Aβ40; experiment: Co-localization of Fluos-labeled ISMs with Fluor-647-Aβ40 (DIC and fluorescence microscopy); format: binding; conditions: incubated at room temperature for 20 min
Procedure: as §14, §2, §3, §4
(containing 1% v/v HFIP) without filtration. The Fluor-647-Aβ40 was ordered from AnaSpec,
for 20 min before capturing images.
microscope, as described elsewhere. An oil immersion objective (Apo-TIRF 100x Oil/NA
1.49, Nikon) was used for all measurements.
Picoquant) was used for excitation. Fluorescence emission was detected using an avalanche
as §9
(measured before the back aperture of the objective).

[7] = Solution-state NMR (NOESY, chemical shifts) structural characterization; format: physicochemical
Procedure: as §2, §3, §4, §5, §6, §7, §8, §9, §10
quantify the signal-to-noise ratio. For the R3-GI peptide, the signal to noise ratio of the isolated Thr-CH3 peak amounts to […]. For the reference peptide, the signal to noise of the single Thr-CH3 peak corresponds to 216.82. The ratio of concentrations amounts to a factor of 20.83. Otherwise, 1D-1H spectra were recorded under identical conditions. […]
images in which we determined the partitioning coefficient of the R3-GI solution (Fig. S3). […]
correlation time which in turn would result in higher NOESY cross peak intensities. A) H- H NOESY spectrum recorded for a 500 μM solution of R3-GI, using a salt concentration of 2.5 mM (black) and 50 mM NaCl (red), respectively. […]
recorded for a 500 μM solution of R3-GI, setting the pH to 5.98 (blue), 6.87 (green), 7.06 (red) and 7.23 (black). […]

[8] = Saturation transfer difference (STD) NMR; format: physicochemical; conditions: R3-GI 1.25 mM, control peptide 60 μM, 10 mM sodium phosphate buffer, pH 7.4 (1% v/v HFIP, 10% v/v D2O)
[9] = test system: Aβ40; experiment: Effects of ISM on Aβ40 amyloid self-assembly (ThT binding assay); format: biochemical; conditions: Aβ40/ISM 1/1, 50 mM sodium phosphate buffer, pH 7.4, 100 mM NaCl, 1% HFIP, room temperature, 3 assays
Procedure: as §11
Cross-linking studies were performed as previously described. Briefly, R3-GI was dissolved at 500 μM in aqueous 10 mM sodium phosphate buffer, pH 7.4, and incubated for the indicated time points at room temperature, cross-linked with aqueous glutaraldehyde (25%) (Sigma-Aldrich), precipitated with aqueous trichloroacetic acid (TCA) (10%) and pellets were dissolved in NuPAGE sample buffer and subjected to NuPAGE electrophoresis in 4-12% Bis-Tris gels with MES running buffer. Equal amounts of peptide were loaded in all lanes. Coomassie blue staining was performed following standard protocols.
Dynamic light scattering experiments […]
as §12
(A) Amyloid self-assembly of Aβ40 alone and its mixtures (1:1) with K3-L3-K3-GI or L3-GI (control) determined using the ThT binding assay (means (±SEM), 3 assays). […]
7 days aged solutions from (A) were added to PC12 cells; cell damage was assessed by the MTT reduction assay (means (±SEM), 3 assays (n=3 each)). […]

[10] = Solubility of ISMs (qualitative); format: physicochemical
[11] = test system: Aβ40; experiment: TEM of ISM-induced Aβ40 aggregates; format: biochemical; conditions: equimolar amount of K3-L3-K3-GI
Procedure: Figure 6 Structural characterization of K3‐L3‐K3‐GI‐induced Aβ40 aggregates. A, B) TEM images of Aβ40 in the absence (A) and presence (B) of an equimolar amount of K3‐L3‐K3‐GI. Scale bar: 200 nm. C) 2D ^13C,^15N MAS solid‐state NMR correlation spectra obtained for K3‐L3‐K3‐GI‐induced Aβ40 aggregates (red). To prepare the sample, a 20 μM solution of monomeric Aβ40 was incubated with a 1.23‐fold molar excess of K3‐L3‐K3‐GI. For reference, the correlation spectrum obtained for Aβ40 fibrils is shown in black. To prepare the Aβ40 fibril sample, monomeric Aβ40 was grown using 5 % seeds, following the protocol described by Lopez and co‐workers.17 (D) Cα–Cβ chemical shift differences for K3‐L3‐K3‐GI‐induced Aβ40 aggregates (top). TALOS+^[19]‐predicted secondary structure propensity (bottom). […]
temperature within 2-5 min following solution preparation. The determined app. […]
as §12, §13

[12] = 20 μM 15N-labeled Aβ40, molar ratio 1:1

Macroscopic particles in solution (DIC) [3]: macroscopic particles are observed
Molecule: ATQRLANFLVH-GGG-NF(N-Me)GA(N-Me)ILS [G3-GI]
Aβ amyloid self-assembly inhibition, in words [4]: non‐inhibitor | Aβ40 solubility at 1:1, in words [5, 12]: almost unaffected | Aβ40 resonance intensity remaining at tenfold excess of ISM ([5]; 20 μM 15N-labeled Aβ40, molar ratio Aβ/ISM 1:10): ca. 28% | Aβ40 signal at tenfold excess of ISM, in words [5]: high intensities were observed | Effect on Aβ40 solubility upon titration, in words [5]: no effects on Aβ40 solubility were observed | Co-localization with Aβ40 [6]: no co‐localization with Aβ40 | Long-range NOE contacts (loop formation) [7]: only weak long‐range NOEs if any

STD NMR signals [8]: monomeric | STD NMR signals ([8]; listed as monomeric peptide used as a control): no STD signals
Molecule: GVAEPEQDCAVTSGE

Function of K3-L3-K3-GI as analogue of L3-GI (Figure S1) [9]: functional analogue | Solubility, in words [10]: reasonably soluble
Molecule: KKK-ATQRLANFLVH-LLL-NF(N-Me)GA(N-Me)ILS-KKK [K3-L3-K3-GI]
Aβ40 remaining in solution [5, 12]: 9% | Aβ40 chemical shift changes upon ISM addition ([5]; 2D 1H-15N HSQC, molar ratio 1:1): not affected; also recorded: No Aβ40 chemical shift changes were observed | Aβ40 signal at tenfold excess of ISM, in words [5]: almost empty; also recorded: disappear quantitatively | Effect on Aβ40 solubility upon titration, in words [5]: precipitated quickly out of solution | Morphology of ISM-induced Aβ40 aggregates [11]: mainly amorphous aggregates | Co-localization with Aβ40 [6]: co‐localize with Aβ40

Continued, molecule first:

Molecule: CSc1ccc(/C=C2/C(C)=C(CC(=O)O)c3cc(F)ccc32)cc1 [sulindac sulfide]
Effect on Aβ peptide aggregation [1]: accelerates Aβ peptide aggregation

Molecule: NCCCS(=O)(=O)O [tramisprosate]
Effect on Aβ42 amyloid oligomer formation [2]: can prevent amyloid oligomer formation
